Assay results: ChEMBL document CHEMBL3124785, “Discovery of 2-(1H-indazol-1-yl)-thiazole derivatives as selective EP(1) receptor antagonists for treatment of overactive bladder by core structure replacement” (Bioorg Med Chem Lett, 2014)
Values after ≈ are worked out from the molar mass of the structure shown.

Columns and labels:
[1] = Cmax in rat at 10 mg/kg, po; type: ADME, organism-based; parameters: dose 10 mg/kg, route oral; conditions: in vivo
[2] = AUC (0 to infinity) in rat at 10 mg/kg, po; type: ADME, organism-based; parameters: time infinity, dose 10 mg/kg, route oral; conditions: plasma
[3] = Apparent permeability in MDCK cells; type: ADME, cell-based, Canis lupus familiaris; conditions: dog
[4] = Solubility of the compound at pH 6.8; type: physicochemical; conditions: buffer
[5] = Solubility of the compound in water; type: physicochemical
[6] = Oral bioavailability in rat at 10 mg/kg; type: ADME, organism-based; conditions: in vivo

O=C(O)c1csc(-n2nc(-c3ccccc3)c3ccc(C(F)(F)F)cc32)n1
Cmax [1]: 5.34 µM
AUC(0-inf) [2]: 9.27 µM·h
Papp [3]: 17.8 ×10⁻⁶ cm/s
solubility [4]: 123 µg/mL (≈ 316 µM)
solubility [5]: 37 µg/mL (≈ 95 µM)
bioavailability [6]: 31%
